Patent US11912693B2, “Compounds for modulating S1P1 activity and methods of using the same” (TREVENA, INC., priority 2017, dated 2024)

How the values were obtained:
[1] = molecular target: T1, human sphingosine-1-phosphate receptor 1 (S1P1) (Homo sapiens (Human), UniProt P21453); test: Inhibition of cAMP production (HTRF cAMP HiRange), S1P1 CHO-K1 cells; format: cell-based; details: for Emax: CHO-K1, efficacy (SPAN) normalized to fingolimod, read-out: hS1P1 cAMP SPAN
In short: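 CHO-K1 cells stably co-expressing human S1P1 (C-terminal Prolink tag) and EA-β-arrestin2 were grown in AssayComplete Media 6 at 37° C. and 5% CO2, plated, and incubated overnight. Agonist-driven inhibition of intracellular cAMP was read by TR-FRET with the HTRF cAMP HiRange kit on a PheraStar reader. Potency is pEC50, and efficacy (SPAN) is normalized to fingolimod.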
Target sequence in this assay (P21453 whole entry, looked up): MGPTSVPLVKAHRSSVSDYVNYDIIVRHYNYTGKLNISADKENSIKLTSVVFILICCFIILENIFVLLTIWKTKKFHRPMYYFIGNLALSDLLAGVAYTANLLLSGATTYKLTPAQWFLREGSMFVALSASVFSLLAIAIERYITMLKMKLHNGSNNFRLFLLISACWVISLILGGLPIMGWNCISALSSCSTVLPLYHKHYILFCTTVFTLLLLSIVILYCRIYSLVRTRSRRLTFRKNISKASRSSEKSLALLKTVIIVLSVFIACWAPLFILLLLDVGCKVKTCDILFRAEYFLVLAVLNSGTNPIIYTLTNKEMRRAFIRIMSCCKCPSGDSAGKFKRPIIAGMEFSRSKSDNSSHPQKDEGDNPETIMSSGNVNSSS

[2] = molecular target: T1, human sphingosine-1-phosphate receptor 1 (S1P1); test: β-Arrestin2 recruitment assay (PathHunter), S1P1 CHO-K1 cells; format: cell-based; details: for Emax: CHO-K1, efficacy (SPAN) normalized to fingolimod, read-out: hS1P1 B-arrestin2 SPAN
In short: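 Enzyme-fragment complementation read-out: agonist-driven β-arrestin2 binding to ProLink-tagged human S1P1 in stable CHO-K1 cells restores β-galactosidase, measured 1 h at room temperature after a 60 min 37° C. compound incubation. Potency as pEC50, efficacy relative to fingolimod (SPAN).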
Target sequence in this assay (P21453 whole entry, looked up): as above
Target sequence in this assay (P32121 whole entry partner, looked up): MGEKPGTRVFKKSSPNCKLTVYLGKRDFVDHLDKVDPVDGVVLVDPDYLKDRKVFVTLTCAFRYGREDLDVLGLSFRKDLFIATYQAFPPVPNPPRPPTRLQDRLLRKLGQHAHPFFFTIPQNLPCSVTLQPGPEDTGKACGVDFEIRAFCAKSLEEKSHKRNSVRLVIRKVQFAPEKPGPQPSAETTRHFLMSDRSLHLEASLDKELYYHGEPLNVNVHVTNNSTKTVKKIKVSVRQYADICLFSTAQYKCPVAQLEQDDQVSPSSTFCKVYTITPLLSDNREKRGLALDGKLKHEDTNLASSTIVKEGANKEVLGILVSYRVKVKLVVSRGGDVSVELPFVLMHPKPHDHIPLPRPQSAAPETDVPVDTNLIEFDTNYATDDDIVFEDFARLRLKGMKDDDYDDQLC

[3] = inhibition of cAMP production, S1P1 CHO-K1 cells
[4] = β-arrestin2 recruitment, S1P1 CHO-K1 cells

`CC(C)n1nnc2cc(-c3noc(-c4ccc(-c5ccccc5)cc4)n3)ccc21` [Compound 248, 5-([1,1′-biphenyl]-4-yl)-3-(1-isopropyl-1H-benzo[d][1,2,3]triazol-5-yl)-1,2,4-oxadiazole] was tested, and the “hS1P1 cAMP pEC50” value [1, 3] was <6.5 and the “hS1P1 B-arrestin2 pEC50” value [2, 4] was <5.
In the case of `CC(C)n1nnc2cc(-c3nc(-c4cncnc4)no3)ccc21` [Compound 249, 1-(propan-2-yl)-5-[3-(pyrimidin-5-yl)-1,2,4-oxadiazol-5-yl]-1H-1,2,3-benzotriazole], the “hS1P1 cAMP pEC50” value [1, 3] is reported as <6.5 and the “hS1P1 B-arrestin2 pEC50” value [2, 4] is reported as <5.
For `COc1ccc(-c2coc(-c3ccc4c(c3)nnn4C(C)C)n2)cc1` [Compound 250, 5-[4-(4-methoxyphenyl)-1,3-oxazol-2-yl]-1-(propan-2-yl)-1H-1,2,3-benzotriazole], the Emax [1] was < 75%, the “hS1P1 cAMP pEC50” value [1, 3] was <6.5 and the Emax [2] was < 75%. The “hS1P1 B-arrestin2 pEC50” value [2, 4] was <5.
For `COc1cccc(OC)c1-c1noc(-c2ccc3c(c2)nnn3C(C)C)n1` [Compound 251, 3-(2,6-dimethoxyphenyl)-5-(1-isopropylbenzotriazol-5-yl)-1,2,4-oxadiazole], the Emax [1] was < 75%, the “hS1P1 cAMP pEC50” value [1, 3] was <6.5 and the Emax [2] was < 75%. For the same compound, the “hS1P1 B-arrestin2 pEC50” value [2, 4] was <5.
With `Cc1ccsc1-c1noc(-c2ccc3c(c2)nnn3C(C)(C)C)n1` [Compound 253, 1-tert-butyl-5-[3-(3-methylthiophen-2-yl)-1,2,4-oxadiazol-5-yl]-1H-1,2,3-benzotriazole] the Emax [1] was > 75%, the EC50 ([1]; inhibition of cAMP production, S1P1 CHO-K1 cells, read-out: hS1P1 cAMP pEC50 (converted)) was < 0.316 µM and the Emax [2] was > 75%. For the same compound, the EC50 ([2]; β-arrestin2 recruitment, S1P1 CHO-K1 cells, read-out: hS1P1 B-arrestin2 pEC50 (converted)) was < 10 µM.
With `CC1(C)CCC2(CC1)CC(=O)c1cc(-c3nc(-c4ccncc4)no3)ccc1O2` [Compound 254, 4′,4′-dimethyl-6-[3-(pyridin-4-yl)-1,2,4-oxadiazol-5-yl]-3,4-dihydrospiro[1-benzopyran-2,1′-cyclohexane]-4-one] the Emax [1] was < 75%, the “hS1P1 cAMP pEC50” value [1, 3] was >6.5 and the Emax [2] was < 75%. The “hS1P1 B-arrestin2 pEC50” value [2, 4] was <5.
For `CC(C)n1nnc2cc(-c3noc(-c4ccc(F)cc4)n3)ccc21` [Compound 255, 5-(4-fluorophenyl)-3-(1-isopropylbenzotriazol-5-yl)-1,2,4-oxadiazole], the Emax [1] was < 75%, the “hS1P1 cAMP pEC50” value [1, 3] was <6.5 and the Emax [2] was < 75%. For the same compound, the “hS1P1 B-arrestin2 pEC50” value [2, 4] was <5.
`CCC1(CC)CC(=O)c2cc(-c3nc(-c4ccc(N)cc4)no3)ccc2O1` [Compound 256, 6-(3-(4-aminophenyl)-1,2,4-oxadiazol-5-yl)-2,2-diethylchroman-4-one] was tested, and the Emax [1] was > 75%, the “hS1P1 cAMP pEC50” value [1, 3] was >6.5 and the Emax [2] was > 75%. The “hS1P1 B-arrestin2 pEC50” value [2, 4] was >5.
In the case of `CCC1(CC)CC(=O)c2cc(-c3nc(-c4ccccc4OC)ns3)ccc2O1` [Compound 257, 2,2-diethyl-6-(3-(2-methoxyphenyl)-1,2,4-thiadiazol-5-yl)chroman-4-one], the “hS1P1 cAMP pEC50” value [1, 3] is reported as <6.5 and the “hS1P1 B-arrestin2 pEC50” value [2, 4] is reported as <5.
With `CCC1(CC)CC(=O)c2cc(-c3nc(-c4cccnc4O)no3)ccc2O1` [Compound 258, 2,2-diethyl-6-(3-(2-hydroxypyridin-3-yl)-1,2,4-oxadiazol-5-yl)chroman-4-one] the “hS1P1 cAMP pEC50” value [1, 3] was <6.5 and the “hS1P1 B-arrestin2 pEC50” value [2, 4] was <5.
In the case of `COc1cccc(F)c1-c1noc(-c2ccc3c(c2)nnn3C(C)C)n1` [Compound 260, 3-(2-fluoro-6-methoxy-phenyl)-5-(1-isopropylbenzotriazol-5-yl)-1,2,4-oxadiazole], the Emax [1] is reported as > 75%, the “hS1P1 cAMP pEC50” value [1, 3] is reported as <6.5 and the Emax [2] is reported as > 75%. For the same compound, the “hS1P1 B-arrestin2 pEC50” value [2, 4] was <5.
In the case of `CCC1(CC)CC(=O)c2cc(-c3nc(-c4cccc(Cl)c4)no3)ccc2O1` [Compound 261, 6-[3-(3-chlorophenyl)-1,2,4-oxadiazol-5-yl]-2,2-diethyl-chroman-4-one], the “hS1P1 cAMP pEC50” value [1, 3] is reported as <6.5 and the “hS1P1 B-arrestin2 pEC50” value [2, 4] is reported as >5.
With `Cc1ccncc1-c1noc(-c2ccc3nnn(C(C)C)c3c2)n1` [Compound 264, 6-[3-(4-methylpyridin-3-yl)-1,2,4-oxadiazol-5-yl]-1-(propan-2-yl)-1H-1,2,3-benzotriazole] the Emax [1] was < 75%, the “hS1P1 cAMP pEC50” value [1, 3] was <6.5 and the Emax [2] was < 75%. For the same compound, the “hS1P1 B-arrestin2 pEC50” value [2, 4] was <5.
In the case of `CCC1(CC)CC(=O)c2cc(-c3nc(-c4sccc4C)no3)ccc2O1` [Compound 265, 2,2-diethyl-6-(3-(3-methylthiophen-2-yl)-1,2,4-oxadiazol-5-yl)chroman-4-one], the Emax [1] is reported as > 75%, the “hS1P1 cAMP pEC50” value [1, 3] is reported as >6.5 and the Emax [2] is reported as < 75%. The “hS1P1 B-arrestin2 pEC50” value [2, 4] was >5.
`CCC1(CC)CC(=O)c2cc(-c3nc(-c4ccc(S(=O)(=O)NC)cc4)no3)ccc2O1` [Compound 266, 4-(5-(2,2-diethyl-4-oxochroman-6-yl)-1,2,4-oxadiazol-3-yl)-N-methylbenzenesulfonamide] was tested, and the “hS1P1 cAMP pEC50” value [1, 3] was <6.5 and the “hS1P1 B-arrestin2 pEC50” value [2, 4] was >5.
In the case of `CCC1(CC)CC(=O)c2cc(-c3nc(-c4ccccc4OC)no3)ccc2O1` [Compound 268, 2,2-diethyl-6-[3-(2-methoxyphenyl)-1,2,4-oxadiazol-5-yl]chroman-4-one], the “hS1P1 cAMP pEC50” value [1, 3] is reported as >6.5 and the “hS1P1 B-arrestin2 pEC50” value [2, 4] is reported as >5.
In the case of `CCC1(CC)CC(=O)c2cc(-c3nc(-c4ccc(C)cc4)no3)ccc2O1` [Compound 269, 2,2-diethyl-6-[3-(p-tolyl)-1,2,4-oxadiazol-5-yl]chroman-4-one], the Emax [1] is reported as < 75%, the “hS1P1 cAMP pEC50” value [1, 3] is reported as <6.5 and the Emax [2] is reported as < 75%. The “hS1P1 B-arrestin2 pEC50” value [2, 4] was <5.
For `C=CCn1nnc2cc(-c3nc(-c4ccccc4)no3)ccc21` [Compound 270, 5-(3-phenyl-1,2,4-oxadiazol-5-yl)-1-(prop-2-en-1-yl)-1H-1,2,3-benzotriazole], the “hS1P1 cAMP pEC50” value [1, 3] was <6.5 and the “hS1P1 B-arrestin2 pEC50” value [2, 4] was <5.
For `CC(C)CCn1nnc2cc(-c3nc(-c4ccccc4)no3)ccc21` [Compound 271, 1-(3-methylbutyl)-5-(3-phenyl-1,2,4-oxadiazol-5-yl)-1H-1,2,3-benzotriazole], the Emax [1] was < 75%, the “hS1P1 cAMP pEC50” value [1, 3] was <6.5 and the Emax [2] was < 75%. For the same compound, the “hS1P1 B-arrestin2 pEC50” value [2, 4] was <5.
In the case of `COc1cncc(-c2nc(-c3ccc4c(c3)nnn4C(C)C)no2)c1` [Compound 272, 3-(1-isopropyl-1H-benzo[d][1,2,3]triazol-5-yl)-5-(5-methoxypyridin-3-yl)-1,2,4-oxadiazole], the Emax [1] is reported as < 75%, the “hS1P1 cAMP pEC50” value [1, 3] is reported as <6.5 and the Emax [2] is reported as < 75%. For the same compound, the “hS1P1 B-arrestin2 pEC50” value [2, 4] was <5.
With `Cc1cccc(-c2nc(-c3ccc4c(c3)nnn4C3CCCC3)no2)c1` [Compound 273, 3-(1-cyclopentyl-1H-benzo[d][1,2,3]triazol-5-yl)-5-(m-tolyl)-1,2,4-oxadiazole] the “hS1P1 cAMP pEC50” value [1, 3] was <6.5 and the “hS1P1 B-arrestin2 pEC50” value [2, 4] was <5.
`CC1(C)CC(=O)c2cc(-c3nc(-c4cccnc4)no3)ccc2O1` [Compound 274, 2,2-dimethyl-6-[3-(pyridin-3-yl)-1,2,4-oxadiazol-5-yl]-3,4-dihydro-2H-1-benzopyran-4-one] was tested, and the Emax [1] was > 75%, the “hS1P1 cAMP pEC50” value [1, 3] was <6.5 and the Emax [2] was < 75%. For the same compound, the “hS1P1 B-arrestin2 pEC50” value [2, 4] was >5.
With `COc1ccc(-c2nc(-c3ccc4c(c3)nnn4C3CCCC3)no2)cc1OC` [Compound 275, 3-(1-cyclopentyl-1H-benzo[d][1,2,3]triazol-5-yl)-5-(3,4-dimethoxyphenyl)-1,2,4-oxadiazole] the Emax [1] was < 75%, the “hS1P1 cAMP pEC50” value [1, 3] was <6.5 and the Emax [2] was < 75%. The “hS1P1 B-arrestin2 pEC50” value [2, 4] was <5.
For `CC(C)n1nnc2cc(-c3noc(-c4ccccc4C#N)n3)ccc21` [Compound 279, 2-(3-(1-isopropyl-1H-benzo[d][1,2,3]triazol-5-yl)-1,2,4-oxadiazol-5-yl)benzonitrile], the Emax [1] was > 75%, the “hS1P1 cAMP pEC50” value [1, 3] was <6.5 and the Emax [2] was > 75%. For the same compound, the “hS1P1 B-arrestin2 pEC50” value [2, 4] was <5.
`O=C1CC2(CCCCC2)Oc2ccc(-c3nc(-c4ccncc4)no3)cc21` [Compound 280, 6-[3-(pyridin-4-yl)-1,2,4-oxadiazol-5-yl]-3,4-dihydrospiro[1-benzopyran-2,1′-cyclohexane]-4-one] was tested, and the Emax [1] was < 75%, the “hS1P1 cAMP pEC50” value [1, 3] was <6.5 and the Emax [2] was < 75%. The “hS1P1 B-arrestin2 pEC50” value [2, 4] was <5.
With `COc1cc(-c2noc(-c3ccc4c(c3)nnn4C3CCCC3)n2)ccn1` [Compound 281, 1-cyclopentyl-5-[3-(2-methoxypyridin-4-yl)-1,2,4-oxadiazol-5-yl]-1H-1,2,3-benzotriazole] the Emax [1] was < 75%, the “hS1P1 cAMP pEC50” value [1, 3] was <6.5 and the Emax [2] was < 75%. For the same compound, the “hS1P1 B-arrestin2 pEC50” value [2, 4] was <5.
With `CC(C)n1nnc2cc(-c3nc(-c4ccccc4Br)no3)ccc21` [Compound 282, 5-[3-(2-bromophenyl)-1,2,4-oxadiazol-5-yl]-1-(propan-2-yl)-1H-1,2,3-benzotriazole] the Emax [1] was > 75%, the “hS1P1 cAMP pEC50” value [1, 3] was >6.5 and the Emax [2] was > 75%. The “hS1P1 B-arrestin2 pEC50” value [2, 4] was >5.
In the case of `Brc1ccccc1-c1nc(-c2ccc3c(c2)nnn3Cc2cccnc2)no1` [Compound 283, 5-(2-bromophenyl)-3-(1-(pyridin-3-ylmethyl)-1H-benzo[d][1,2,3]triazol-5-yl)-1,2,4-oxadiazole], the Emax [1] is reported as < 75%, the “hS1P1 cAMP pEC50” value [1, 3] is reported as <6.5 and the Emax [2] is reported as < 75%. For the same compound, the “hS1P1 B-arrestin2 pEC50” value [2, 4] was <5.
`COc1ccc(-c2noc(-c3ccc4c(c3)nnn4C3CCCCC3)n2)cc1C(F)(F)F` [Compound 284, 1-cyclohexyl-5-{3-[4-methoxy-3-(trifluoromethyl)phenyl]-1,2,4-oxadiazol-5-yl}-1H-1,2,3-benzotriazole] was tested, and the Emax [1] was < 75%, the “hS1P1 cAMP pEC50” value [1, 3] was <6.5 and the Emax [2] was < 75%. For the same compound, the “hS1P1 B-arrestin2 pEC50” value [2, 4] was <5.
